From patent publication US12398123B2, “Chemical inhibition of the E3 ligase subunit FBXO7 confers neuroprotection and anti-inflammatory activity by stabilizing mitochondria” (University of Pittsburgh—Of the Commonwealth System of …, priority 2017, dated 2025) come the findings set out here.

The nature of series [1]: intracerebral ventricular infusion in mice for 2 weeks (tolerability). Type of series: in vivo, mouse. As to conditions: 10 ug/ml via intracerebral ventricular infusion for 2 weeks. The procedure:
BC 1464 was administered in artificial CSF with DMSO by intracerebroventricular pump to C5bl/6 mice.

Series [2] relates to PINK1. The experiment in a line: human lung slices challenged with LPS: Pink1 immunoblotting. As to conditions: compound 4 h, then LPS 100 ng/ml 4 h.
Another series concerns SH-SY5Y cells. The series is described as follows: MPP+ elicited injury in SH-SY5Y cells, AlamarBlue cell viability. As to conditions: 5 μg/ml with MPP+ for 24 h, relative to BC1465. On the technique in general: Resazurin is reduced to fluorescent resorufin, in cell work by metabolically active cells.
The test system of series [3] is H9C2 cells. The experiment in a line: tBHP-induced mitochondrial injury in H9C2 cells, MitoTracker Red flow cytometry. As to conditions: 100 ng/ml 16 h, tBHP 100 μM 45 min. In general terms: Flow cytometry measures light scatter and fluorescence of single cells or particles in a stream.
The subject of series [4] is Pink1. The experiment in a line: Pink1 protein stability (CHX chase) in BEAS-2B cells. The note with it: 1 μg/ml for 16 h, then CHX 40 μg/ml.
The test system of series [5] is TNF release from human PBMCs. The series is described as follows: LPS stimulated TNF secretion from PBMCs (ELISA). Type of series: cell-based. As to conditions: 2 h pretreatment, then LPS 10 ng/ml 4 h. A general note: ELISA stands for enzyme-linked immunosorbent assay.
In series [6] the test system is P. aeruginosa (PA103) lung inflammatory injury. The experiment in a line: experimental pneumonia: mice given PA103 i.t.
Series [7] deals with Pink1. The series is described as follows: target validation: Pink1 levels in BEAS-2B cells with control or Fbxo7 siRNA. As to conditions: Fbxo7 siRNA 3 days, compound 18 h.
Series [8] concerns H9C2 cells. The experiment in a line: mitochondrial membrane potential after CCCP in H9C2 cells, JC1 staining, confocal microscopy. As to conditions: 100 ng/ml 16 h, CCCP 20 μM 2 h.
In a further series the test system is primary fibroblasts. The series is described as follows: 6-OHDA model in primary fibroblasts. The note with it: 6-OHDA 300 M (unit prefix printed as image), 19 h.
Series [9] relates to cytokine release from human lung explants. The series is described as follows: human lung slices challenged with LPS: TNFα ELISA of supernatant. The note with it: compound 4 h, then LPS 100 ng/ml 4 h.
Another series deals with primary cortical neurons. The experiment in a line: morphological injury of GFP-transfected primary cortical neurons challenged with MPP+. The note with it: MPP+ 24 h.
Series [10] deals with H9C2 cells. The series is described as follows: CCCP triggered mitochondrial injury in H9C2 cells, Mitosense Red and Annexin V flow cytometry. As to conditions: 100 ng/ml 16 h, CCCP 20 μM 2 h; CCCP alone 17.2%. The class given is cell-based, rat.
Series [11] relates to late neural progenitor cells differentiated from a human iPSC line. The series is described as follows: DMSO-induced cell death in late neural progenitor cells from an SNCA triplication iPSC line. The class given is cell-based. As to conditions: 5 ng/mL for 1 wk. Here is the method:
Methods. Late neural progenitor cells were derived from an iPSC line from a PD patient with SNCA gene triplication, as previously described (D'Aiuto et al. Organogenesis 10(4): 365-377). […] Images were acquired with a 40× oil objective (1.30 NA) on an Olympus IX71 microscope using Olympus CellSens V1.17 with a DP80 camera. Cell death was assessed by counting condensed/fragmented nuclei. Results.

The test system of series [12] is PINK1. Type of series: cell-based, human. The note with it: SHSY5Y PINK1-Flag, compound 3 h, cycloheximide 10 μg/ml 1 h. The text has this:
FIGS. 7A-7H. […] FIG. 7A. […] FIG. 7B. […] FIG. 7C. […] FIG. 7D-7E. […] Scale bar=100 μm.

The test system of series [13] is Pink1. The series is described as follows: Pink1 protein decay in BEAS-2B cells with proteasomal or lysosomal inhibitors and CHX. The class given is cell-based. As to conditions: 30 min pretreatment (MG132 20 μM, leupeptin 100 μM), then CHX 40 μg/ml. Here is the method:
FIGS. 1A-1E. Fbxo7 mediates Pink1 polyubiquitylation and proteasomal degradation. FIG. 1A. BEAS-2B cells were pretreated with MG132 (20 μM), leupeptin (100 μM), or diluent (control, CON) for 30 min, and then were treated with CHX (40 μg/ml) to assay protein decay. The cell lysates were obtained at the indicated time points for immunoblotting. FIG. 1B. BEAS-2B cells were nucleofected with V5-tagged Fbxo7 plasmid at indicated amounts and incubated for 48 h, the whole cell lysates were subjected to immunoblotting. FIG. 1C. BEAS-2B cells were nucleofected with 4 individual shRNAs respectively and analyzed by immunoblotting. FIG. 1D. BEAS-2B cells were nucleofected with control shRNA or Fbxo7 shRNA for 72 h, and then treated with CHX (40 μg/ml). The cells were collected at indicated time points for half-life analysis. FIG. 1E. In vitro ubiquitylation assays were performed with synthesized Pink1 combined with indicated recombinant proteins.
Cell Culture and Transfection.
Pink1 undergoes rapid proteolysis in cells, and the cleaved Pink1 fragment may be degraded through the N-end rule pathway. To test if full length Pink1 is subjected to ubiquitin mediated degradation, we evaluated the ability of proteasomal or lysosomal inhibitors to regulate stability of the kinase. […]

The mark [14] stands for this setting: 5 mg/kg intraperitoneal, 18 h, compared to vehicle control or BC1465.

Peptide text beside a SMILES is read from it. * marks the point of attachment. Cbz = O=C(OCc1ccccc1)*

Regarding `O=C(CCCn1c(SCC(=O)NCC2CCCO2)nc2ccccc2c1=O)NCc1ccccc1` (stereo not drawn) [BC1464], the toxicity / survival entry in [1] is listed as “no overt toxicity”. The “Pink1 protein levels in human lung explants” value with PINK1 [2] is “selectively increase Pink1 protein levels”. In addition, the “MPP+ elicited injury (cell viability)” value with SH-SY5Y cells is “significantly decreased MPP+ elicited injury”. In the series on H9C2 cells [3], the “protection from tBHP-induced mitochondrial injury” value is recorded as “largely protected mitochondria from oxidative stress”. In addition, the “mitochondrial injury (damaged mitochondria) after tBHP” value in the series on H9C2 cells [3] (tBHP with vehicle 45.3%, untreated 4.1%) worked out at 26.1%. The “Pink1 protein stability upon inhibiting protein synthesis” value in the series on Pink1 [4] is on record as “largely stabilized Pink1”. The “reduction of LPS stimulated release of TNF” value in series [5] (1 ng/ml) is on record as ~37%. Besides, in series [5] (10 ng/ml), the “LPS stimulated release of TNF” value is “potently blocked”. Moreover, in series [6] (5 mg/kg intraperitoneal at time of PA103, 18 h), the lavage bacteria counts result is “no effect”. In series [6] (setting [14]), the lavage cell numbers result is listed as “significantly decreased”, the lavage cytokine levels entry was “significantly decreased” and the lavage protein result is given as “significantly decreased”. In addition, in the series with Pink1 [7], the “Pink1 levels after Fbxo7 siRNA treatment” value was “not observed”. Also, in the series on H9C2 cells [8], the “mitochondrial membrane potential disrupted by CCCP (JC1)” value is “maintains the mitochondrial membrane potential”. In the series on primary fibroblasts, the “protection in the 6-OHDA model” value is recorded as “conferred protection”. Moreover, in series [9], the “cytokine release in response to endotoxin” value was “inhibit cytokine release”. The “retraction and simplification of the dendritic arbor” value with primary cortical neurons (5 μg/ml, versus BC1465) was “protect against retraction and simplification of the dendritic arbor”. Further, the “cell death in primary cortical neurons” value in the series on primary cortical neurons is reported as “reduce cell death”. For the same compound, in the series with H9C2 cells [10], the “CCCP damaged (depolarized) mitochondria” value was found to be 10.5%. In addition, in [11], the “toxicity elicited by DMSO (condensed/fragmented nuclei)” value is recorded as “prevented toxicity elicited by DMSO”. Also, the “PINK1 expression in the presence of cycloheximide” value with PINK1 [12] is “stabilizes PINK1 expression”.
Regarding `N#Cc1ccccc1Cn1c(=O)n(CCCC(=O)NCc2ccc3c(c2)OCO3)c(=O)c2ccccc21` [BC1465, reference compound], the “Pink1 protein stability upon inhibiting protein synthesis” value in the series on Pink1 [4] was “no effect on Pink1 protein stability”.
On to `CC(C)C[C@@H](C=O)NC(=O)[C@H](CC(C)C)NC(=O)[C@H](CC(C)C)NC(=O)OCc1ccccc1` [MG132] (Cbz-Leu-Leu-Leu-aldehyde), for which, in the series on Pink1 [13], the “Pink1 accumulation / turnover” value was “accumulated not only the Pink1 fragment, but also full length Pink1”.
Still for that read-out and setting: to `CC(=O)N[C@@H](CC(C)C)C(=O)N[C@@H](CC(C)C)C(=O)N[C@H](C=O)CCCNC(=N)N` [leupeptin] belongs “little impact on basal Pink1 turnover”.
